Source: the METLIN SMRT retention time set (Domingo-Almenara et al. 2019)

Assay: gradient 5% acetonitrile 3 min, to 50% in 2 min, to 85% in 15 min, held 3 min, 100 µL/min
Settings: column: Zorbax Extend-C18 2.1 x 50 mm; eluents: water / acetonitrile, 0.1% formic acid
How it was run: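 Retention time was recorded from adduct peaks, which were picked computationally and each inspected manually. Pure standards ran in mixtures of ~100 molecules on HPLC coupled to a quadrupole time-of-flight mass spectrometer, in positive and negative ionization mode, through a Zorbax Extend-C18 column (2.1 × 50 mm, 1.8 μm) at 100 μL/min. Eluents were water and acetonitrile, each with 0.1% formic acid.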

Row | SMILES | RP-LC retention time
1 | CC(C)(C)C(=O)N1CCC(F)(c2nc(-c3ccncc3)no2)CC1 | 802 s
2 | O=C(COc1ccc(-c2nnc3n2CCCC3)cc1)Nc1cccc(Br)c1 | 642 s
3 | O=C(NCc1ccc(F)c(Cl)c1)c1csc(C(=O)NC2CC2)n1 | 828 s
4 | NS(=O)(=O)c1ccc(CCNc2nnnc3c2cnn3-c2ccccc2)cc1 | 814 s
5 | CCOc1ccccc1NC(=O)CC1Sc2ccccc2NC1=O (stereo not given) | 829 s
6 | CCn1cc(S(=O)(=O)N[C@@H]2CN(Cc3ccccn3)C[C@H]2CN(C)C)cn1 | 524 s
7 | COc1ccc(NC(=O)Cn2c(=O)n(-c3ccc(C)cc3)c(=O)c3c2cc(C)n3C)cc1Cl | 891 s
8 | COc1ccc(-n2c(=O)n(C)c(=O)c3cc(C(=O)Nc4ccc5c(c4)OCO5)cnc32)cc1 | 841 s
9 | O=C(NC1CC1)[C@@H]1C[C@H](Oc2ccccc2)CN1C(=O)c1cccs1 | 699 s
10 | COC(=O)c1ccsc1NC(=O)c1ccccc1Cl | 897 s
11 | COc1ccc(-c2nnc(SCC(=O)Nc3nccs3)o2)cc1 | 720 s
12 | COc1ccccc1CNC(=O)C1CCCN(c2cnc3nccnc3c2)C1 (stereo not given) | 689 s
13 | O=C1CC(c2ccc(C(=O)O)cc2)c2scc(-c3ccccc3F)c2N1 (stereo not given) | 804 s
14 | CC1CCN(CCNc2ncccc2-c2nnc(-c3ccc(Cl)cc3)o2)CC1 | 813 s
15 | O=C(Nc1ccccc1Cl)N1CCCC1c1nc(-c2ccc(F)cc2F)no1 (stereo not given) | 1040 s
16 | O=C(Nc1nnc(SCc2nnc(-c3ccccc3)o2)s1)c1ccc(Br)o1 | 870 s
17 | COC(=O)c1ccccc1Nc1c(-c2ccc(F)cc2)nc2cnc(Br)cn12 | 1120 s
18 | Cc1noc(-c2cc(=O)n(CC(=O)NCc3cccs3)c3ccccc23)n1 | 795 s
19 | CC1CCN(S(=O)(=O)c2cccnc2Nc2ccc(Cl)cc2)CC1 | 1370 s
20 | CCCn1c(CCNC(=O)c2ccc(F)cc2F)nc2cccnc21 | 675 s
21 | COc1ccccc1-c1noc(-c2nnn3c2COC(c2ccc(C)cc2C)C3)n1 (stereo not given) | 1250 s

Row | SMILES | RP-LC retention time
22 | Cc1nc(-c2noc(-c3ccccc3)n2)cn1CC(=O)NCc1ccccc1F | 810 s
23 | O=C(Nc1ccccc1Cl)C(=O)c1c[nH]c2ccccc12 | 1130 s
24 | O=C1C(NS(=O)(=O)Cc2cc(F)cc(F)c2)CCN1c1ccccc1 (stereo not given) | 914 s
25 | O=C(NCc1ccco1)N1CCc2nc(-c3ccc(F)cc3)ncc2C1 | 813 s
26 | COc1cccc(S(=O)(=O)N2CCC(c3noc(-c4ccccc4C)n3)CC2)c1 | 1140 s
27 | COc1cc(NC(=O)Nc2nccn(-c3ccc(C)c(Cl)c3)c2=O)cc(OC)c1 | 1060 s
28 | COc1ccc(CNC(=O)NCCOc2cc(C)cc(C)c2)cc1OC | 782 s
29 | COc1ccc(NC(=O)c2csc(-c3cn(C)c4ncccc34)n2)cc1 | 923 s
30 | COc1ccc(Cl)cc1NC(=O)c1c(O)c2cccc3c2n(c1=O)CC3 | 1330 s
31 | Cn1nc(C(=O)Nc2cccnc2)ccc1=O | 493 s
32 | COc1cccc(N2N=NC3C(=O)N(c4ccccc4)C(=O)C32)c1 (stereo not given) | 922 s
33 | O=S(=O)(Nc1ccc(Cn2cncn2)cc1)c1ccccc1Br | 708 s
34 | Cc1ccsc1-c1nnc(CC(=O)N2CCN(Cc3ccc4c(c3)OCO4)CC2)o1 | 640 s
35 | CCOc1cccc(CNC(=O)c2cn3ccc(C)cc3n2)c1 | 671 s
36 | COc1ccc(OC)c(CNC(=O)C2c3ccccc3C(=O)N3CCc4ccccc4C23)c1 (stereo not given) | 867 s
37 | COc1ccccc1N1CCN(C[C@@H](C(=O)NC(C)(C)C)c2ccccc2)CC1 | 812 s
38 | CCN(CC)CCNC(=O)c1ccc(-c2nc(CCN(C)C(C)=O)no2)cc1 | 576 s
39 | CCc1cccc(N2C(=O)CN(S(C)(=O)=O)CC2(C)C(=O)NCc2ccc(C)cc2)c1 (stereo not given) | 905 s
40 | COc1cccc(-c2nnc(Cc3nc(-c4cccs4)no3)o2)c1 | 929 s
41 | O=S(=O)(Nc1cccn2ncnc12)c1ccc(Cl)cc1 | 770 s
42 | Cc1noc2nc(C)n(CC(=O)NC3CCCc4ccccc43)c(=O)c12 (stereo not given) | 822 s

Row | SMILES | RP-LC retention time
43 | Cc1cccc(-c2noc(-c3nn(CC(=O)NC4CC4)c4ccccc34)n2)c1 | 1040 s
44 | CC1=NS(=O)(=O)N(C)C=C1C(=O)OCc1nc(-c2ccc(Cl)cc2)no1 | 1010 s
45 | Cc1cccc(C)c1NC(=O)Cn1c(C)nc2c(sc3nc(-c4ccccc4)ccc32)c1=O | 1080 s
46 | Cc1cc(C)cc(NS(=O)(=O)c2ccc3c(c2)C(=O)N(C)c2ncccc2O3)c1 | 1000 s
47 | O=C(Cc1ccsc1)N1CCCn2cc(-c3ccccc3F)nc21 | 784 s
48 | Cc1ccc(-c2nc(-c3cccc(-c4ccn[nH]4)c3)no2)cc1F | 915 s
49 | COc1ccc(-c2ncc3c(=O)n(CC(=O)Nc4ccc(OC)c(OC)c4)cnc3n2)cc1 | 750 s
50 | CCCn1cc(CCNS(=O)(=O)c2ccc(OC)c(Cl)c2)c2cccnc21 | 865 s
51 | COC(=O)c1ccc2c(=O)n(-c3cc(OC)cc(OC)c3)c(N3CCC(C(N)=O)CC3)nc2c1 | 736 s
52 | Cc1ccc2c(Nc3ccc(C(C)C)cc3)c(C(=O)N3CCCC(C)C3)cnc2n1 (stereo not given) | 737 s
53 | c1ccc(-c2nc3nccc(-c4cccc5ccccc45)n3n2)cc1 | 995 s
54 | CCCS(=O)(=O)c1nc2ccc(NS(=O)(=O)c3cc(F)ccc3F)cc2s1 | 918 s
55 | Cc1nc2ccn(Cc3cccnc3)c(=O)c2cc1C(=O)NCCc1ccco1 | 598 s
56 | COc1ccc(-c2nc(N3CCC(C)CC3)c3ccccc3n2)cc1 | 860 s
57 | O=C(NCc1ccco1)c1ccc(OCc2nc(C3CC3)cs2)cc1 | 825 s
58 | CC(=O)OC1CCN(C(=O)C(C)(C)C)CC1 | 726 s
59 | O=C(Cc1c(F)cccc1Cl)N1CCN(c2cc(-c3cccs3)[nH]n2)CC1 | 840 s
60 | CCOc1ccccc1CN1C[C@@H]2C(=O)N(C)C(=O)[C@@H]2C1 | 595 s
61 | O=S(=O)(c1ccccc1F)N1CCC(OCc2noc(C3CCCO3)n2)CC1 (stereo not given) | 865 s

More lines, now with the values ahead:

Row | RP-LC retention time | SMILES
62 | 618 s | COc1ccc(C2(C(=O)N3CCCC(CN4CCCC4)CC3)CC2)cc1 (stereo not given)
63 | 883 s | COC(=O)c1cc(S(=O)(=O)N2CCCC2C(=O)Nc2cccc(F)c2)cn1C (stereo not given)
64 | 648 s | O=C(NCCCN1CCCCCC1)c1nnc(-c2ccc(S(=O)(=O)N3CCCC3)cc2)o1
65 | 934 s | CN1CCCc2cc(C(=O)NC3CCCCC3)sc21
66 | 1010 s | CCn1c(=O)c(N2CCN(C(=O)Nc3ccccc3Br)CC2)nc2ccccc21
67 | 696 s | CC1CCCN(CC2CCN(S(=O)(=O)c3cccc(Cl)c3)CC2)C1 (stereo not given)
68 | 975 s | Cc1cc(Cl)ccc1NC(=O)c1cc2n(n1)CCCC2
69 | 613 s | Cn1ncc2c3ccccc3n(CC(=O)N3CCC(N4CCCCC4)CC3)c2c1=O
70 | 747 s | Cc1ccc(S(=O)(=O)N2CC(Cc3nncn3C3CCCC3)C2)cc1F
71 | 964 s | Cn1nc(-c2nc(-c3cccc(F)c3)no2)c2c1CCN(C(=O)NC(C)(C)C)C2
72 | 576 s | Cc1cc(C(=O)N2CCOCC2)n(CC(=O)NCc2ccco2)n1
73 | 574 s | Cn1nc(C(=O)N2CCCC2)c2c1CCN(C(=O)CCC(=O)NCCCN1CCCC1)C2
74 | 641 s | OCCNCCN1CCN(CCCN2c3ccccc3Sc3ccc(C(F)(F)F)cc32)CC1
75 | 609 s | COc1ccc(N2CCN(c3cc(C(=O)O)c4cc(NS(C)(=O)=O)ccc4n3)CC2)cc1
76 | 1070 s | COc1cccc(-c2noc(N3CCCCC3)n2)c1
77 | 664 s | Cn1c(=O)c2nscc2n(CC(=O)NC2CCCCC2)c1=O
78 | 778 s | CCOC(=O)c1c(C)c(CCC(=O)N2CCN(C(=O)c3ccco3)CC2)n(CC)c1C
79 | 750 s | O=C(Cc1ccsc1)NC1CCN(c2ccc(=O)n(CCOc3ccccc3)n2)C1 (stereo not given)
80 | 598 s | CCOc1ccc(CN2C[C@@H]3C(=O)N(CCN4CCc5ccccc5C4)C(=O)[C@@H]3C2)cc1
81 | 650 s | CSc1cccc(NC(=O)N2CCN(C3=CC4=NCC(C)N4C=N3)CC2)c1 (stereo not given)
82 | 843 s | O=C(Cc1cccs1)NC(Cc1ccccc1)c1nnc(N2CCCCC2)o1 (stereo not given)
83 | 690 s | CCCC(=O)Nc1ccc2c(c1)CN(C(=O)Cc1cccs1)C(C(=O)N(C)C)C2 (stereo not given)
84 | 845 s | Cc1ccc(NC(=O)CN2C(=O)CCCc3cc(S(=O)(=O)N4CCCCC4)ccc32)cc1
85 | 840 s | CCCCNC(=O)C1CCCN(c2ccc(=O)n(-c3cccc(Cl)c3)n2)C1 (stereo not given)
86 | 1330 s | COc1ccc(-c2nc3n(n2)C2(CCCCC2)[C@@H]2CCCC[C@@H]2N3C(C)=O)cc1
87 | 982 s | COc1cccc(CNC(=O)C2(C)CCCN(C(=O)Nc3cccc(Cl)c3C)C2)c1 (stereo not given)
88 | 743 s | O=C(c1ccc(Cl)s1)N1CCN(S(=O)(=O)C2CC2)CC1
89 | 800 s | CCC(=O)N1CCc2ccc(C(=O)NC3CCCCC3)cc21
90 | 937 s | O=C(Nc1ccc(N2CCN(C3CCCC3)C2=O)nc1)c1ccc(Cl)cc1
